{"source": "patent US10695341B2", "about": "“Compositions and methods for treating endometriosis” (UNIVERSITY OF SOUTH FLORIDA, priority 2014, dated 2020)", "key": {"endometriotic lesions": {"system": "endometriotic lesions", "assay": "Induced murine endometriosis model, lesion count (Example 6)", "assay_type": "in vivo, C57BL/6 mice", "method": "To determine whether treatment with HCQ alters the formation of endometriotic lesions, an induced model of murine endometriosis in which mice receive injections of uterine horn fragments that develop into lesions within 2 weeks was utilized. Receipient (endometriosis-induced) mice were treated with 60 mg/kg HCQ21 or phosphate-buffered saline (PBS, FIG. 12). This treatment was repeated once every seven days post-induction. Mice that were neither injected with uterine horn fragments nor treated were used as controls (FIG. 39). All of the mice were euthanized at the same time (14 days after endometriosis induction for both the PBS and HCQ treatment groups). Ectopic lesions that developed in the recipient mice (white arrow, FIGS. 40A-40B) were counted, measured, and collected for RNA and protein analysis, as well as for histological staining. […] The majority (87.5%) of endometriosis-induced mice developed lesions. At the time of collection, we noted that the endometriotic lesions varied in size, color, and location across the treatment groups.\nFive-week-old C57BL/6 female mice were purchased from Jackson laboratories. All animals were maintained under standard 12 h photoperiod; food and water were available ad libitum throughout the study. […] Lesions were measured using a caliper. Volume of the lesions was calculated according to the formula: 4/3πr^2R."}, "[1]": {"system": "uterine horns and ovaries", "assay": "Murine tissue microarray H&E and immunohistochemistry (uterine horns, ovaries)", "assay_type": "in vivo, mouse", "text": "To determine whether HCQ treatment alters the histopathology (tissue organization) of the recipient's uterine horns and other tissues, a murine tissue microarray (TMA) comprised of 113 cores and performed H&E as well as immunohistochemical staining was developed. The TMA contained uterine horns and ovaries from 10 PBS- and 10 HCQ-treated mice, as well as a mammary gland, a kidney, a lymph node and a small intestine from a PBS-treated mouse for use as antibody controls. […] Estrogen receptor α (ERα) was primarily localized to the epithelial cell layer of the endometrial glands, while progesterone receptor (PR) appeared to be evenly distributed between the stromal and epithelial cell compartments. However, the PR staining was comparatively much weaker to that for ERα. […] LC3B expression appeared more intense in HCQ-treated mice relative to PBS-treated mice in both the stromal and epithelial compartments (FIGS. 19A-19X). […] Collected samples were immediately preserved in 10% neutral buffered formalin at the animal facility. Samples were embedded in paraffin, sectioned, and transferred to slides for hematoxylin/eosin and immunohistochemical staining. A pathologist reviewed each case and delimited the region of interest, containing epithelial and stromal cells, for each specimen. A mouse tissue microarray was prepared at the Tissue Core Facility at the Moffitt Cancer Center. The mouse tissue microarray contained a total of 113 core samples, which included 10 uterine horns and 10 ovaries from both PBS and HCQ treated mice. As control specimens for the utilized antibodies, the TMA included mouse mammary tissue, […], small intestine, and lymph nodes from a PBS treated mouse. Lesions were analyzed from independent blocks. Slides were stained using a Leica Bond RX automated system (Leica Biosytems, Buffalo Grove, Ill.) following manufacturers instructions with proprietary reagents. Slides were deparaffinized on an automated system with Dewax Solution (Leica Biosystems). The antigen retrieval method used for Progesterone Receptor (PR) was enzymatic with Enzyme Solution 1 at 15 min (Leica), for vimentin and Estrogen Receptor (ER) was heat induced with Epitope Retrieval Solution 1 at 20 min (Leica), for cytokeratin 8 (CK-8) was heat induced with Epitope Retrieval Solution at 10 min (Leica), and for LC3B was heat-induced with Epitope Retrieval Solution 1 at 10 min (Leica Biosystems). All antibodies were diluted in Dako antibody diluent (Carpenteria, Calif.): PR (# ab131486, 1:500, Abcam, Cambridge, Mass.), vimentin (#5741 (D21H3), 1:100, Cell Signaling, Danvers, Mass.), ERα (# ab32063 ([…]), 1:200, Abcam, Cambridge, Mass.), Cytokeratin-8 (# ab53280 (E[…]), 1:200, Abcam, Cambridge, Mass.), and LC3B (# ab51520, 1:1,500, Abcam, Cambridge, Mass.) and incubated for 30 min. The Leica Bond Polymer Refine Detection System was used with a polymer incubation for 8 min. Hematoxylin was used as counterstain and slides were dehydrated and covered with a coverslip, following standard histological protocol."}}, "data": [{"smiles": "CCN(CCO)CCCC(C)Nc1ccnc2cc(Cl)ccc12", "note": "(stereo not shown) [HCQ, hydroxychloroquine]", "values": [{"measurement": "number of lesions that developed vs PBS", "setting": "endometriotic lesions; 60 mg/kg HCQ i.p., repeated after seven days, 14 days after induction, p=0.0007", "value": "significant reduction"}, {"measurement": "total number of lesions in treatment group", "setting": "endometriotic lesions; 60 mg/kg HCQ, n=25 mice (PBS: 46 lesions in n=24)", "value": 18}, {"measurement": "luminal epithelium of the uterine horn endometrium (H&E, TMA)", "setting": "[1]; HCQ-treated mice", "value": "irregular pattern"}, {"measurement": "intensity or localization of IHC markers in ovaries", "setting": "[1]; HCQ-treated relative to PBS-treated mice", "value": "no marked differences"}, {"measurement": "ERα and PR staining pattern or intensity in uterine horns", "setting": "[1]; PBS vs HCQ-treated mice", "value": "no differences"}, {"measurement": "vimentin and CK8 localization in uterine horns", "setting": "[1]; stromal and epithelial compartments, independently of HCQ treatment", "value": "appropriately localized"}, {"measurement": "LC3B expression in uterine horns (IHC)", "setting": "[1]; stromal and epithelial compartments, relative to PBS", "value": "more intense"}]}]}
